Assay results: PMC3075238 (Bioorganic & medicinal chemistry letters, 2011)

Molecular target: T1, caspase-3 in HeLa cell (Homo sapiens, UniProt P42574)
T1 sequence (P42574 29-175 limits assumed): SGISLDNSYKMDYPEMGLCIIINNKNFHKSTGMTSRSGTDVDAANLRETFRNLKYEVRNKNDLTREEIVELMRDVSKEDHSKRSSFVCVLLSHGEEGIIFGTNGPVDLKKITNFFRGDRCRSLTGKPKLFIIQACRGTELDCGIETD
T1 sequence (P42574 176-277 limits assumed): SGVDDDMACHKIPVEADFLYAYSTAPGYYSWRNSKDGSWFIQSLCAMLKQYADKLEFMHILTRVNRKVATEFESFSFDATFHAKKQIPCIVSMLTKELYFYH
Experiment: Apo-One Homogeneous Caspase-3/7 whole cell assay in HeLa cells

inhibition potency for caspase-3 in the whole cell assay (in words): very good inhibition potency
SMILES: O=C1C(=O)N(Cc2cn(CCF)nn2)c2ccc(S(=O)(=O)N3CCC[C@H]3COc3ccc(F)cc3F)cc21 [Compound 51]
